The results in this text go back to ChEMBL document CHEMBL4828738, “Design, synthesis and evaluation of novel 5-phenylthiophene derivatives as potent fungicidal of Candida albicans and antifungal reagents of fluconazole-resistant fungi” (Eur J Med Chem, 2021).

≈ marks a conversion by molar mass, not a printed value.

What all share (assay type): functional
In experiment [1] the test system is Candida parapsilosis. As to the kind of experiment: Antifungal activity against Candida parapsilosis GIM2.190 assessed as fungal growth inhibition by CLSI protocol based method. The note with it: Lodderomyces parapsilosis.
For experiment [2], the system named is Candida tropicalis. Nature of the experiment: Antifungal activity against Candida tropicalis CGMCC 2.3739 assessed as fungal growth inhibition by CLSI protocol based method.
For experiment [3], the system named is Nakaseomyces glabratus. As to the kind of experiment: Antifungal activity against Candida glabrata assessed as fungal growth inhibition by CLSI protocol based method.
The subject of experiment [4] is Candida albicans. Nature of the experiment: Antifungal activity against Candida albicans CPCC400616 assessed as fungal growth inhibition by CLSI protocol based method.
The subject of experiment [5] is Cryptococcus neoformans. Nature of the experiment: Antifungal activity against Cryptococcus neoformans CGMCC2.3161 assessed as fungal growth inhibition by CLSI protocol based method.
Experiment [6] concerns Pichia kudriavzevii. As to the kind of experiment: Antifungal activity against Candida krusei GIM2.1 assessed as fungal growth inhibition by CLSI protocol based method.
Experiment [7] deals with Candida albicans. Nature of the experiment: Antifungal activity against Candida albicans ATCC SC5314 assessed as fungal growth inhibition by CLSI protocol based method.

Broadly, the MIC is the lowest concentration found to suppress growth. `O=C(NC(Cn1ccnc1)C(=O)c1ccc(F)cc1F)c1ccc(-c2ccc(Cl)cc2)s1` (centres undefined): the MIC in experiment [1] was more than 64 µg/mL; in experiment [2] it was more than 64 µg/mL; in experiment [3], more than 64 µg/mL; in experiment [4], more than 64 µg/mL; in experiment [5] it was 2 µg/mL (≈ 4.24 µM); in experiment [6] it was more than 64 µg/mL. The MIC in experiment [7] was found to be 0.5 µg/mL (≈ 1.06 µM).

Consider `O=C(NC(Cn1ccnc1)C(=O)c1ccccc1)c1ccc(-c2ccccc2Cl)s1` (centres undefined), for which the MIC in experiment [1], in experiment [2], in experiment [3], in experiment [4], in experiment [5] and in experiment [6] was more than 64 µg/mL throughout. For the same compound, in experiment [7], the MIC was more than 64 µg/mL.

On to `O=C(NC(Cn1ccnc1)C(=O)c1ccccc1)c1cc2ccccc2s1` (centres undefined), for which the MIC in experiment [1], in experiment [2], in experiment [3], in experiment [4], in experiment [5] and in experiment [6] was more than 64 µg/mL in each case. Moreover, the MIC in experiment [7] is more than 64 µg/mL.

Take `O=C(NC(Cn1ccnc1)C(=O)c1ccccc1)c1ccc(-c2ccc(OC(F)(F)F)cc2)s1` (centres undefined): the minimum inhibitory concentration (MIC) is more than 64 µg/mL in experiment [1]; 32 µg/mL (≈ 65.9 µM) in experiment [2]; more than 64 µg/mL in experiment [3]; 16 µg/mL (≈ 33 µM) in experiment [4]; more than 64 µg/mL in experiment [5]; more than 64 µg/mL in experiment [6]. In addition, in experiment [7], the MIC is 0.5 µg/mL (≈ 1.03 µM).

On to `CCOc1ccc(-c2ccc(C(=O)NC(Cn3ccnc3)C(=O)c3ccccc3)s2)cc1` (centres undefined), for which the MIC in experiment [1], in experiment [2], in experiment [3], in experiment [4], in experiment [5] and in experiment [6] was more than 64 µg/mL throughout. Moreover, the MIC in experiment [7] is more than 64 µg/mL.

Turning to `O=C(NC(Cn1ccnc1)C(=O)c1ccccc1)c1cnc(-c2ccccc2)o1` (centres undefined), the MIC in experiment [1] is more than 64 µg/mL; in experiment [2], more than 64 µg/mL; in experiment [3], more than 64 µg/mL; in experiment [4], 64 µg/mL (≈ 166 µM); in experiment [5], more than 64 µg/mL; in experiment [6] it was more than 64 µg/mL. Moreover, the MIC in experiment [7] came out at 32 µg/mL (≈ 82.8 µM).

On to `O=C(NC(Cn1ccnc1)C(=O)c1ccccc1)c1ccc(N2CCN(c3ccccc3)CC2)cc1` (centres undefined), for which the MIC in experiment [1], in experiment [2], in experiment [3], in experiment [4], in experiment [5] and in experiment [6] was more than 64 µg/mL each time. Besides, in experiment [7], the minimum inhibitory concentration (MIC) is more than 64 µg/mL.

As for `O=C(NC(Cn1ccnc1)C(=O)c1ccc(OC(F)(F)F)cc1)c1ccc(-c2ccc(Cl)cc2)s1` (centres undefined), the MIC in experiment [1] is more than 64 µg/mL; in experiment [2], more than 64 µg/mL; in experiment [3], more than 64 µg/mL; in experiment [4] it was 32 µg/mL (≈ 61.5 µM); in experiment [5] it was more than 64 µg/mL; in experiment [6] it was more than 64 µg/mL. In addition, in experiment [7], the MIC is 32 µg/mL (≈ 61.5 µM).

For `O=C(NC(Cn1ccnc1)C(=O)c1ccccc1)c1ccc(-c2ccc(F)cc2F)s1` (centres undefined), the minimal inhibitory concentration (MIC) in experiment [1], in experiment [2], in experiment [3], in experiment [4], in experiment [5] and in experiment [6] was more than 64 µg/mL throughout. For the same compound, the MIC in experiment [7] is 8 µg/mL (≈ 18.3 µM).

For the compound `O=C(NC(Cn1ccnc1)C(=O)c1ccccc1)c1ccc(-c2ccc(Cl)cc2Cl)s1` (centres undefined), the minimum inhibitory concentration (MIC) in experiment [1], in experiment [2], in experiment [3], in experiment [4], in experiment [5] and in experiment [6] was more than 64 µg/mL each time. For the same compound, the MIC in experiment [7] is more than 64 µg/mL.

For `Cc1ccc(-c2ccc(C(=O)NC(Cn3ccnc3)C(=O)c3ccccc3)s2)cc1` (centres undefined), the MIC in experiment [1] is 8 µg/mL (≈ 19.3 µM); in experiment [2], 2 µg/mL (≈ 4.81 µM); in experiment [3], more than 64 µg/mL; in experiment [4], 1 µg/mL (≈ 2.41 µM); in experiment [5], more than 64 µg/mL; in experiment [6], more than 64 µg/mL. Also, the MIC in experiment [7] came to 0.125 µg/mL (≈ 0.301 µM).

Turning to `O=C(NC(Cn1ccnc1)C(=O)c1ccccc1)c1ccc(-c2ccsc2)cc1` (centres undefined), the MIC in experiment [1] is more than 64 µg/mL; in experiment [2], 2 µg/mL (≈ 4.98 µM); in experiment [3], more than 64 µg/mL; in experiment [4] it was 2 µg/mL (≈ 4.98 µM); in experiment [5], 8 µg/mL (≈ 19.9 µM); in experiment [6] it was 16 µg/mL (≈ 39.9 µM). The MIC in experiment [7] is 1 µg/mL (≈ 2.49 µM).
